Measured values: patent US20090191193A1, “Aryl Vinyl Sulfides, Sulfones, Sulfoxides and Sulfonamides, Derivatives Thereof and Therapeutic Uses Thereof” (TEMPLE UNIVERSITY-OF THE COMMONWEALTH SYSTEM OF HIGHER …, priority 2006, published 2009)

Key:
DU145 (prostate cancer) = assay: Effect on tumor cell lines, viable cell count by trypan blue exclusion (Latham et al.): DU145; assay type: cell-based; conditions: Homo sapiens, DU-145, 96 h, DU145 prostate cancer cells, viable cell count 96 hours after treatment
[1] = system: K562 (chronic myelogenous leukaemia); assay: Effect on tumor cell lines, viable cell count by trypan blue exclusion (Latham et al.): K562; assay type: cell-based; conditions: Homo sapiens, K562, 96 h, K562 chronic myelogenous leukaemia cells, viable cell count 96 hours after treatment

SMILES: COc1ccc(/C=C(\C#N)S(=O)(=O)Nc2ccc(Br)cc2)c(OC)c1OC [Example 218]
- IC50 (DU145 (prostate cancer)): > 100 µM
- IC50 [1]: 50 to 100 µM
- melting point: 146 to 148 °C

SMILES: CCOc1ccc(/C=C(\C#N)S(=O)(=O)Nc2ccc(Br)cc2)cc1OC [Example 219]
- IC50 (DU145 (prostate cancer)): 50 to 100 µM
- IC50 [1]: 50 to 100 µM
- melting point: 188 to 190 °C

SMILES: N#C/C(=C\c1c(F)c(F)c(F)c(F)c1F)S(=O)(=O)Nc1ccc(Br)cc1 [Example 221]
- IC50 (DU145 (prostate cancer)): 1 to 10 µM
- IC50 [1]: < 1 µM
- melting point: 174 to 176 °C

SMILES: N#C/C(=C\c1c[nH]c2ccc(Br)cc12)S(=O)(=O)Nc1ccc(Br)cc1 [Example 222]
- IC50 (DU145 (prostate cancer)): 25 to 50 µM
- IC50 [1]: 25 to 50 µM
- melting point: 242 to 253 °C

SMILES: N#C/C(=C\c1ccc(O)c([N+](=O)[O-])c1)S(=O)(=O)Nc1ccc(Br)cc1 [Example 223]
- IC50 (DU145 (prostate cancer)): > 100 µM
- IC50 [1]: > 100 µM
- melting point: > 250 °C

SMILES: Cc1ccsc1/C=C(\C#N)S(=O)(=O)Nc1ccc(Br)cc1 [Example 224]
- IC50 (DU145 (prostate cancer)): 50 to 100 µM
- IC50 [1]: 50 to 100 µM
- melting point: 176 to 179 °C

SMILES: COc1ccccc1/C=C(\C#N)S(=O)(=O)Nc1ccc(Br)cc1 [Example 225]
- IC50 (DU145 (prostate cancer)): 50 to 100 µM
- IC50 [1]: 50 to 100 µM
- melting point: 187 to 189 °C

SMILES: N#C/C(=C\c1ccc(F)cc1F)S(=O)(=O)Nc1ccc(Br)cc1 [Example 226]
- IC50 (DU145 (prostate cancer)): 25 to 50 µM
- IC50 [1]: 25 to 50 µM
- melting point: 165 to 166 °C

SMILES: N#C/C(=C\c1ccccc1Cl)S(=O)(=O)Nc1ccc(Br)cc1 [Example 227]
- IC50 (DU145 (prostate cancer)): 50 to 100 µM
- IC50 [1]: 25 to 50 µM
- melting point: 192 to 194 °C

SMILES: N#C/C(=C\c1ccccc1O)S(=O)(=O)Nc1ccc(Br)cc1 [Example 228]
- IC50 (DU145 (prostate cancer)): 25 to 50 µM
- IC50 [1]: 25 to 50 µM
- melting point: 169 to 170 °C

SMILES: Cc1ccc(C)c(/C=C(\C#N)S(=O)(=O)Nc2ccc(Br)cc2)c1 [Example 229]
- IC50 (DU145 (prostate cancer)): 50 to 100 µM
- IC50 [1]: 25 to 50 µM
- melting point: 172 to 174 °C

SMILES: N#C/C(=C\c1ccccc1OCc1ccccc1)S(=O)(=O)Nc1ccc(F)cc1 [Example 230]
- IC50 (DU145 (prostate cancer)): 25 to 50 µM
- IC50 [1]: 10 to 25 µM
- melting point: 127 to 129 °C

SMILES: N#C/C(=C\c1c[nH]c2ccccc12)S(=O)(=O)Nc1ccc(F)cc1 [Example 231]
- IC50 (DU145 (prostate cancer)): 50 to 100 µM
- IC50 [1]: 25 to 50 µM
- melting point: 202 to 204 °C

SMILES: COc1cc(OC)c(/C=C(\C#N)S(=O)(=O)Nc2ccc(F)cc2)c(OC)c1 [Example 232]
- IC50 (DU145 (prostate cancer)): 50 to 100 µM
- IC50 [1]: 25 to 50 µM
- melting point: 169 to 171 °C

SMILES: CN(C)c1ccc(/C=C(\C#N)S(=O)(=O)Nc2ccc(F)cc2)cc1 [Example 233]
- IC50 (DU145 (prostate cancer)): > 100 µM
- IC50 [1]: 50 to 100 µM
- melting point: 179 to 180 °C

SMILES: N#C/C(=C\c1c(F)c(F)c(F)c(F)c1F)S(=O)(=O)Nc1ccc(F)cc1 [Example 234]
- IC50 (DU145 (prostate cancer)): 1 to 10 µM
- IC50 [1]: < 1 µM
- melting point: 150 to 152 °C

SMILES: N#C/C(=C\c1ccccc1Cl)S(=O)(=O)Nc1ccc(F)cc1 [Example 235]
- IC50 (DU145 (prostate cancer)): 25 to 50 µM
- IC50 [1]: 10 to 25 µM
- melting point: 182 to 184 °C

SMILES: Cc1ccsc1/C=C(\C#N)S(=O)(=O)Nc1ccc(F)cc1 [Example 236]
- IC50 (DU145 (prostate cancer)): > 100 µM
- IC50 [1]: 50 to 100 µM
- melting point: 179 to 181 °C

SMILES: COc1cc(OC)c(OC)cc1/C=C(\C#N)S(=O)(=O)Nc1ccc(F)cc1 [Example 237]
- IC50 (DU145 (prostate cancer)): > 100 µM
- IC50 [1]: > 100 µM
- melting point: 184 to 186 °C

SMILES: Cc1ccc(C)c(/C=C(\C#N)S(=O)(=O)Nc2ccc(F)cc2)c1 [Example 238]
- IC50 (DU145 (prostate cancer)): > 100 µM
- IC50 [1]: 50 to 100 µM
- melting point: 161 to 164 °C

SMILES: N#C/C(=C\c1ccc(F)cc1F)S(=O)(=O)Nc1ccc(F)cc1 [Example 240]
- IC50 (DU145 (prostate cancer)): 50 to 100 µM
- IC50 [1]: 50 to 100 µM
- melting point: 135 to 139 °C

SMILES: COc1ccc(/C=C(\C#N)S(=O)(=O)Nc2ccc(F)cc2)c(F)c1 [Example 241]
- IC50 (DU145 (prostate cancer)): > 100 µM
- IC50 [1]: 50 to 100 µM
- melting point: 142 to 144 °C

SMILES: N#C/C(=C\c1ccc(Br)cc1)S(=O)(=O)Nc1ccc(F)cc1 [Example 242]
- IC50 (DU145 (prostate cancer)): 50 to 100 µM
- IC50 [1]: 50 to 100 µM
- melting point: 130 to 132 °C

SMILES: N#C/C(=C\c1cc(Cl)cc(Cl)c1Cl)S(=O)(=O)Nc1ccc(F)cc1 [Example 243]
- IC50 (DU145 (prostate cancer)): 10 to 25 µM
- IC50 [1]: 10 to 25 µM
- melting point: 184 to 186 °C

SMILES: Cc1ccc(/C=C(\C#N)S(=O)(=O)Nc2ccc(F)cc2)cc1C [Example 244]
- IC50 (DU145 (prostate cancer)): > 100 µM
- IC50 [1]: > 100 µM
- melting point: 141 to 142 °C

SMILES: N#C/C(=C\c1ccc(F)c(Cl)c1)S(=O)(=O)Nc1ccc(F)cc1 [Example 245]
- IC50 (DU145 (prostate cancer)): 50 to 100 µM
- IC50 [1]: 50 to 100 µM
- melting point: 118 to 120 °C

SMILES: Cc1ccc(/C=C(\C#N)S(=O)(=O)Nc2ccc(F)cc2)s1 [Example 246]
- IC50 (DU145 (prostate cancer)): > 100 µM
- IC50 [1]: > 100 µM
- melting point: 133 to 134 °C

SMILES: COc1ccccc1/C=C(\C#N)S(=O)(=O)Nc1ccc(F)cc1 [Example 247]
- IC50 (DU145 (prostate cancer)): > 100 µM
- IC50 [1]: > 100 µM
- melting point: 152 to 154 °C

SMILES: N#C/C(=C\c1ccc(Cl)cc1)S(=O)(=O)Nc1ccc(F)cc1 [Example 248]
- IC50 (DU145 (prostate cancer)): > 100 µM
- IC50 [1]: 50 to 100 µM
- melting point: 108 to 110 °C

SMILES: COc1cc(/C=C(\C#N)S(=O)(=O)Nc2ccc(F)cc2)cc(OC)c1OC [Example 249]
- IC50 (DU145 (prostate cancer)): > 100 µM
- IC50 [1]: > 100 µM
- melting point: 179 to 182 °C

SMILES: N#C/C(=C\c1c[nH]c2ccc(Br)cc12)S(=O)(=O)Nc1ccc(F)cc1 [Example 250]
- IC50 (DU145 (prostate cancer)): > 100 µM
- IC50 [1]: 50 to 100 µM
- melting point: 167 to 169 °C

SMILES: CCOc1ccc(/C=C(\C#N)S(=O)(=O)Nc2ccc(F)cc2)cc1OC [Example 251]
- IC50 (DU145 (prostate cancer)): > 100 µM
- IC50 [1]: > 100 µM
- melting point: 150 to 152 °C

SMILES: Cc1ccc(NS(=O)(=O)/C(C#N)=C/c2ccccc2OCc2ccccc2)c(C)c1 [Example 252]
- IC50 (DU145 (prostate cancer)): 25 to 50 µM
- IC50 [1]: 10 to 25 µM
- melting point: 177 to 179 °C

SMILES: Cc1ccc(NS(=O)(=O)/C(C#N)=C/c2c[nH]c3ccccc23)c(C)c1 [Example 253]
- IC50 (DU145 (prostate cancer)): 50 to 100 µM
- IC50 [1]: 25 to 50 µM
- melting point: 192 to 194 °C

SMILES: COc1cc(OC)c(/C=C(\C#N)S(=O)(=O)Nc2ccc(C)cc2C)c(OC)c1 [Example 254]
- IC50 (DU145 (prostate cancer)): 50 to 100 µM
- IC50 [1]: 50 to 100 µM
- melting point: 132 to 134 °C

SMILES: Cc1ccc(NS(=O)(=O)/C(C#N)=C/c2ccc(N(C)C)cc2)c(C)c1 [Example 255]
- IC50 (DU145 (prostate cancer)): 25 to 50 µM
- IC50 [1]: 25 to 50 µM
- melting point: 168 to 171 °C

SMILES: Cc1ccc(NS(=O)(=O)/C(C#N)=C/c2ccccc2Cl)c(C)c1 [Example 256]
- IC50 (DU145 (prostate cancer)): 25 to 50 µM
- IC50 [1]: 1 to 10 µM
- melting point: 116 to 119 °C

SMILES: Cc1ccc(NS(=O)(=O)/C(C#N)=C/c2sccc2C)c(C)c1 [Example 257]
- IC50 (DU145 (prostate cancer)): 50 to 100 µM
- IC50 [1]: 10 to 25 µM
- melting point: 166 to 168 °C

SMILES: COc1cc(OC)c(OC)cc1/C=C(\C#N)S(=O)(=O)Nc1ccc(C)cc1C [Example 258]
- IC50 (DU145 (prostate cancer)): > 100 µM
- IC50 [1]: 50 to 100 µM
- melting point: 161 to 163 °C

SMILES: Cc1ccc(NS(=O)(=O)/C(C#N)=C/c2cc(C)ccc2C)c(C)c1 [Example 259]
- IC50 (DU145 (prostate cancer)): > 100 µM
- IC50 [1]: 50 to 100 µM
- melting point: 139 to 141 °C

SMILES: COc1ccc(/C=C(\C#N)S(=O)(=O)Nc2ccc(C)cc2C)c(F)c1 [Example 261]
- IC50 (DU145 (prostate cancer)): > 100 µM
- IC50 [1]: 50 to 100 µM
- melting point: 142 to 144 °C

SMILES: Cc1ccc(NS(=O)(=O)/C(C#N)=C/c2ccc(Br)cc2)c(C)c1 [Example 262]
- IC50 (DU145 (prostate cancer)): 25 to 50 µM
- IC50 [1]: 10 to 25 µM
- melting point: 164 to 166 °C

SMILES: Cc1ccc(NS(=O)(=O)/C(C#N)=C/c2cc(Cl)cc(Cl)c2Cl)c(C)c1 [Example 263]
- IC50 (DU145 (prostate cancer)): < 1 µM
- IC50 [1]: < 1 µM
- melting point: 171 to 173 °C

SMILES: Cc1ccc(NS(=O)(=O)/C(C#N)=C/c2ccc(C)c(C)c2)c(C)c1 [Example 264]
- IC50 (DU145 (prostate cancer)): > 100 µM
- IC50 [1]: > 100 µM
- melting point: 166 to 169 °C

SMILES: Cc1ccc(NS(=O)(=O)/C(C#N)=C/c2ccc(C)s2)c(C)c1 [Example 265]
- IC50 (DU145 (prostate cancer)): 50 to 100 µM
- IC50 [1]: 25 to 50 µM
- melting point: 158 to 160 °C
